The subject of one series is HeLa cells. The series can be described thus: Cytotoxicity XTT, HeLa. As to conditions: 72 h, mean ± SD of 3 independent experiments in triplicate, read-out: cytotoxic IC50 HeLa. It counts as cell-based, human. On the procedure: (§1) HeLa and HEK 293 cells (ATCC CRL-1573) were cultured as described above and seeded into 96-well plates at 400 cells/well. Test and standard compounds were added to plate wells in triplicate (0.05% DMSO in culture medium) in a range of six concentrations. Following 72 h of incubation, […] of an activated XTT solution was added to the cells (1 mg/mL). The absorbance was measured at 450 nm after 2 h incubation at 37 °C. The growth of the compound-treated cells was compared with the growth of vehicle-treated control cells. IC50 values were calculated with GraphPad Prism 6.0.

The next series has as its system HEK 293 cells. The series can be described thus: Cytotoxicity XTT, HEK 293. The class given is cell-based. As to conditions: 72 h, mean ± SD of 3 independent experiments in triplicate, read-out: cytotoxic IC50 HEK 293. On the procedure:
as §1
In general terms: Formazan colour is commonly taken as a measure of viable cells.

Series [1] has as its system α-tubulin acetylation in HeLa cells. The series can be described thus: Acetyl-α-tubulin sandwich ELISA in HeLa cells. It counts as cell-based, human. As to conditions: 25 μM, 48 h. On the procedure: The acetyl-α-tubulin sandwich ELISA Kit (Pathscan® #7204, Cell Signalling) was used to determine tubulin acetylation levels, and Western blotting was used to evaluate histone H4 acetylation, both methods applied to lysates of treated and non-treated HeLa cells (ATCC CCL-2). Cells were cultured in DMEM medium, 4.5 g/L glucose, L-glutamine (Invitrogen), supplemented with 10% heat-inactivated fetal bovine serum (FBS, Biowest), 100 units/mL penicillin, and 100 μg/mL streptomycin, and 1% non-essential amino acids (Invitrogen) at 37 °C with 5% CO2. Prior to ELISA experiments, cells were seeded into 6-well plates at 150,000 cells/well and transfected with the HDAC6-GFP construct (pEGFP.N1-HDAC6, Addgene)[58], using the Lipofectamine 2000 reagent (Invitrogen). Cells were then treated with test compounds, standards or vehicle (0.5% DMSO in culture medium) for 48 h. After the incubation time, cells were washed with cold DPBS (Invitrogen) and lysates were obtained by recovering cells in cold lysis buffer provided in the ELISA kit, supplemented with a protease inhibitor tablet (SigmaFast, Sigma Aldrich). Briefly, cells were harvested in DPBS and centrifuged. The cell pellet was suspended in 100 μL lysis buffer, vortexed, and kept on melting ice for 30 min. Lysates were then obtained by recovering the supernatant after a centrifugation step of 10 min at 11,000 g, 4 °C. Protein concentration was determined by fluorimetry using the Qubit protein assay kit (Invitrogen). Cell lysates were tested at 1 mg/mL following the instructions provided by the ELISA kit manufacturer. For the Western blotting, cells were seeded into 100 mm Petri dishes and treated for 6 h. After the incubation time, cells were washed with cold DPBS (Invitrogen) supplemented with a protease inhibitor tablet (Sigma Fast, Sigma Aldrich), and lysates were obtained by recovering cells in 100 μL cold lysis buffer (10 mM Hepes pH 7.9, 1.5 mM MgCl2, 10 mM KCl, 0.5 mM DTT, 1.5 mM PMSF, 0.2M HCl) the same way as described above. […]
A general note: ELISA stands for enzyme-linked immunosorbent assay.

A short description of another series: Cytotoxicity XTT, HeLa. As to conditions: human, HeLa cells, mean ± SD of 3 independent experiments in triplicate, read-out: cytotoxic IC50 HeLa. The class given is cell-based, human. The procedure:
as §1

A short description of series [2]: Cytotoxicity XTT, HEK 293. As to conditions: human, HEK 293 cells (ATCC CRL-1573), mean ± SD of 3 independent experiments in triplicate, read-out: cytotoxic IC50 HEK 293. It counts as cell-based. The procedure:
as §1

Series [3] deals with HDAC6. As to conditions: cited from earlier work.
The nature of series [4]: Solubility remarks during testing. As to conditions: tested at 100 µM in HDAC assay buffer. The class given is physicochemical.
Series [5] addresses T1, HDAC6 (Homo sapiens, UniProt Q9UBN7).
T1 construct: purchased Sigma Aldrich or Reaction Biology Corporation
T1 sequence (Q9UBN7 1-1215): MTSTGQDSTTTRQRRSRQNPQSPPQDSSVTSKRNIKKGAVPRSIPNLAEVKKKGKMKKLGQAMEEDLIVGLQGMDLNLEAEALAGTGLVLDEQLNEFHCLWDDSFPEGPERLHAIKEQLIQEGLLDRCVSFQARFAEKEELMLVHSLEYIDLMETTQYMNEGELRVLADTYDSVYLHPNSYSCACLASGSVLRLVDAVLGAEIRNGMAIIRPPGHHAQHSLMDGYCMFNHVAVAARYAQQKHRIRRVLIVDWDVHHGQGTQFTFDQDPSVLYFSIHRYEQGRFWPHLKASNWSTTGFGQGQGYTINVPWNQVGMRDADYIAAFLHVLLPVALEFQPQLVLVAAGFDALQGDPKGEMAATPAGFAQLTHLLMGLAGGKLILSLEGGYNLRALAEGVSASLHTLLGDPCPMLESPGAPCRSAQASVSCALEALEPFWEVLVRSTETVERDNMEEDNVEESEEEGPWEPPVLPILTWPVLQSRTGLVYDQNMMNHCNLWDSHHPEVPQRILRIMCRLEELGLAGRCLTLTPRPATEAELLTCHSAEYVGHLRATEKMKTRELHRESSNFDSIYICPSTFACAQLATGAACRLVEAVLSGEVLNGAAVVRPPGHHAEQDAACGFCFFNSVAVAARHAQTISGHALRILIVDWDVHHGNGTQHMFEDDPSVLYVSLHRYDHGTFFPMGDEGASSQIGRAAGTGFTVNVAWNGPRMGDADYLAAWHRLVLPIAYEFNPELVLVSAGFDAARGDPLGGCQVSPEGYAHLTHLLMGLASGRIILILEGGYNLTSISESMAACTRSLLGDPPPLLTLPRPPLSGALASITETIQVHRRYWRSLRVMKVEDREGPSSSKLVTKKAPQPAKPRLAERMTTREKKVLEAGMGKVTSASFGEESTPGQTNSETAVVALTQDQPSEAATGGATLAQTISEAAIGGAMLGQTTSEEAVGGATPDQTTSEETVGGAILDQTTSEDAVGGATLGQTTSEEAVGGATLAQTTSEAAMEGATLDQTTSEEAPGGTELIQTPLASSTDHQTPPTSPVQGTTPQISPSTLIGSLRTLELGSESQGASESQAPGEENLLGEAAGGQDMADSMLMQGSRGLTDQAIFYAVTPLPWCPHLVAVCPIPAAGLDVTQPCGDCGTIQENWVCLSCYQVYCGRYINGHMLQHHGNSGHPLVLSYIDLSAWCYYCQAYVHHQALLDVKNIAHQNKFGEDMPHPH
Briefly: In vitro enzymatic assay HDAC6 (Fluor de Lys). The class given is biochemical. As to conditions: 100 µM; mean ± SD (n=3).

As usually defined, the IC50 is the point on the concentration scale where inhibition reaches its midpoint.

Structures are written as SMILES.

Regarding `CC(/C=C/C(=O)NO)=C\[C@@H](C)C(=O)c1ccc(N(C)C)cc1` [Trichostatin A], the results for the half-maximal inhibitory concentration (IC50) with HeLa cells and with HEK 293 cells were 1500 ± 300 nM and 300 ± 20 nM, respectively.
On to `CN1CCc2c(c3ccccc3n2Cc2ccc(C(=O)NO)cc2)C1` [Tubastatin A], for which the tubulin acetylation result in series [1] was “able to induce tubulin acetylation”. For the same compound, the IC50 at 72 h in the series “Cytotoxicity XTT, HeLa” is 11200 ± 400 nM; in series [2], 2400 ± 600 nM. The IC50 in the series on HDAC6 [3] was […].
`CC1(C)Cc2c(c(N3CCOCC3)nc3sc(C(=O)NN)cc23)CO1` [AK-8]: in series [4], the “solubility remark in HDAC6 screening” value was “Solubility issues”. In addition, the “HDAC6 % of inhibition at 100 µM” value on HDAC6 [5] is 32.5 ± 8.8%.

Source of the values: article PMC4941420, “A Rational Approach for the Identification of Non-Hydroxamate HDAC6-Selective Inhibitors” (Scientific Reports, 2016).
